Results from patent US5763441A, “Compounds for the treatment of disorders related to vasculogenesis and/or angiogenesis” (Sugen, Inc., priority 1995, dated 1998).

Legend:
FLK-1 receptor = molecular target: T1, FLK-1 receptor (Mus musculus, UniProt P35918); assay: ELISA assay to measure kinase activity of FLK-1 receptor in FLK-1/NIH cells; type: cell-based, murine
T1 construct: expressed in transfected cells; host or cells: NIH3T3C7#3 cells (FLK-1 infected NIH3T3)
Protocol: ELISA Assay To Measure Kinase Activity Of FLK-1 Receptor In FLK-1/NIH Cells
An ELISA assay was conducted to measure the kinase activity of the FLK-1 receptor and more specifically, the inhibition or activiation of protein tyrosine kinase activity on the FLK-1 receptor.
k. NIH3T3C7#3 Cells (FLK-1 infected cells);
Protocol. The following protocol was used to conduct the ELISA Assay:
1. Coat Corning 96-well elisa plates with 1.0 ug per well Cappel Anti-rabbit IgG antibody in 0.1M Na2CO3 pH 9.6. Bring final volume to 150 ul per well. Coat plates overnight at 4° C. Plates can be kept up to two weeks when stored at 4° C.
2. Grow cells in 30 ml of Growth media 9DMEM. 2.0 mM L-Glutamine, 10% FBS) until confluent in 150 cm tissue culture dishes at 37° C., 5% CO2.
3. Harvest cells by tyrpsination and seed in Corning 25850 polystyrene 96-well roundbottom cell plates, 25.000 cells/well in 200 uL of growth media.
4. Grow cells at least one day at 37° C., 5% CO2.
5. Wash cells with D-PBS 1X.
6. Add 200 ul/well of starvation media (DMEM, 2.0 mM l-Glutamine, 0.1% FBS). Incubate overnight at 37° C., 5% CO2.
7. Dilute Compounds/Extracts 1:20 in polyproplyene 96 well plates using starvation media. Dilute dimethylsulfoxide 1:20 for use in control wells.
8. Remove starvation media from 96 well cell culture plates and add 162 ul of fresh starvation media to each well.
9. Add 18 ul of 1:20 diluted Compound/Extract dilution (from step #7) to each well plus the 1:20 dimethylsulfoxide dilution to the control wells (+/-VEGF), for a final dilution of 1:200 after cell stimulation. Final dimethylsulfoxide is 0.5%. Incubate the plate at 37° C., 5% CO2 for two hours.
10. Remove unbound antibody from Elisa plates by inverting plate to remove liquid. Wash 3 times with TBSW+0.5% Ethanolamine, pH 7.0. Pat the plate on a paper towel to remove excess liquid and bubbles.
11. Block plates with TBSW+0.5% Ethanolamine, pH 7.0. 150 ul per well. Incubate plate thirty minutes while shaking on a microtiter plate shaker.
12. Wash plate 3 times as described in step 10.
13. Add 0.5 ug/well affinity purified anti-flk-1 polyclonal rabbit antiserum. Bring final volume to 150 ul/well with TBSW+0.5k Ethanolamine pH 7.0. Incubate plate for thirty minutes while shaking.
14. Add 180 μl starvation medium to the cells and stimulate cells with 20 ul/well 10.0 mM Sodium Ortho Vanadate and 500 ng/ml VEGF (resulting in a final concentration of 1.0 mM Sodium Ortho Vanadate and 50 ng/ml VEGF per well) for eight minutes at 37° C., 5% CO2. Negative control wells receive only starvation medium.
15. After eight minutes, media are removed from the cells and washed one time with 200 ul/well PBS.
16. Lyse cells in 150 ul/well HNTG while shaking at room temperature for five minutes. HNTG formulation includes sodium ortho vanadate, sodium pyro phosphate and EDTA.
17. Wash Elisa plate three times as described in step 10.
18. Transfer cell lysates from the cell plate to elisa plate and incubate while shaking for two hours. To transfer cell lysate pipette up and down while scrapping the wells.
19. Wash plate three times as described in step 10.
20. Incubate Elisa plate with 0.02 ug/well UB40 in TBSW+05% ethanolamine. Bring final volume to 150 ul/well. Incubate while shaking for 30 minutes.
21. Wash plate three times as described in step 10.
22. Incubate elisa plate with 1:10,000 diluted EIA grade Goat anti-mouse IgG conjugated horseradish peroxidase in TBSW+0.5% ethanolamine, pH 7.0. Bring final volume to 150 ul/well. Incubate while shaking for thirty minutes.
23. Wash plate as described in step 10.
24. Add 100 ul of ABTS/H202 solution to well. Incubate ten minutes while shaking.
25. Add 100 ul of 0.2M HCL for 0.1M HCL final to stop the colordevelopment reaction. Shake 1 minute at room temperature. Remove bubbles with slow stream of air and read the ELISA plate in an ELISA plate reader at 410 nm.

[1] = test system: VEGF-induced "reddening" response and subsequent swelling (FLK-1 receptor); assay: In vivo VEGF pellet model; design: species or system nude mice (Balb/C athymic nu/nu); details: scored at 24 hours and 48 hours; drug in methylcellulose disc near VEGF pellet
From the text: In this model, VEGF is packaged into a time-release pellet and implanted subcutaneously on the abdomen of nude mice to induce a `reddening` response and subsequent swelling around the pellet. Potential FLK-1 inhibitors may then be implanted in methylcellulose near the VEGF pellet ito determine whether such inhibitor may be used to inhibit the "reddening" response and subsequent swelling.
1) VEGF--human recombinant lyophilized product is commercially may be obtained from Peprotech, Inc., Princeton Business Park, G2; P.O. box 275, Rocky Hill, N.J. 08553.
2) VEGF packaged into 21 day release pellets were obtained from Innovative Research of America, using patented matrix driven delivery system. Pellets were packaged at […], 0.21, or 2.1 μg VEGF/pellet. These doses approximate 10 and 100 ng/day release of VEGF. (Innovative Research of America, 3361 Executive Parkway, P.O. box 2746, Toledo, Ohio 43606)
Protocol. The following protocol was then followed to conduct the VEGF pellet model:
1) VEGF, purchased from Peprotech, was sent to Innovative Research for Custom Pellet preparation;
2) Methylcellulose prepared at 1.5% (w/v) in sterile water;
3) Drugs solublized in methanol (usual concentration range=10 to 20 mg/ml);
4) Place sterile parafilm in sterile 10 cm plates; […]
9) Mice were scored at 24 hours and 48 hours for reddening and swelling response. […]

PC-3 = assay: Tumor xenograft growth inhibition, PC-3 (prostate); type: in vivo, human
Protocol: (§1) The ability of one of the compounds of the present invention, leflunomide (Compound 40), to inhibit ovarian, melanoma, prostate, lung and mammary tumor cell lines established as SC xenografts was examined. These studies were conducted using doses ranging from 12 to 20 mg/kg/day.
(§2) The tumor cells were implanted subcutaneously into the indicated strains of mice. Treatment was initiated on day 1 post implantation unless otherwise indicated (e.g. treatment of the SCID mouse related to the A375 melanoma cell line began on Day 9). Eight (8) to ten (10) mice comprised each test group.
(§3) Animals. Female athymic mice (BALB/c, nu/nu), BALB/c mice, Wistar rats and Fisher 344 rats were obtained from Simonsen Laboratories (Gilroy, Calif.). Female A/I mice were obtained from Jackson Laboratory (Bar Harbor, Me.). DA rats were obtained from B&K Universal, Inc. (Fremont, Calif.). Athymic R/Nu rats, DBA/2N mice, and BALB/c mice were obtained from Harlan Sprague Dawley (Indianapolis, Ind.). Female C57BL/6 mice were obtained from Taconic (Germantown, N.Y.). All animals were maintained under clean-room conditions in Micro-isolator cages with Alpha-dri bedding. They received sterile rodent chow and water ad libitum.
(§4) Subcutaneous Xenograft Model. Cell lines were grown in appropriate medium as described (See Section 6). Cells were harvested at or near confluency with 0.05% Trypsin-EDTA and pelleted at 450×g for 10 min. Pellets were resuspended in sterile PBS or media (without FBS) to a suitable concentration indicated in the Figure legends and the cells were implanted into the hindflank of mice. Tumor growth was measured over 3 to 6 weeks using venier calipers tumor volumes were calculated as a product of length x width x height unless otherwise indicated. P values were calculated using the Students' t-test. su101 in 50-100 uL excipient (dimethylsulfoxide, PBTE, PBTE6C:D5W, or PBTE:D5W) was delivered by IP injection at concentrations indicated in the Figure legends.

Calu-6 = assay: Tumor xenograft growth inhibition, Calu-6 (lung); type: in vivo, human
From the text: The ability of one of the compounds of the present invention, leflunomide (Compound 40), to inhibit ovarian, melanoma, prostate, lung and mammary tumor cell lines established as SC xenografts was examined. […]
as §2, §3, §4

PA-1 = assay: Tumor xenograft growth inhibition, PA-1 (ovarian); type: in vivo, human
Protocol: as §1, §2
Animals. Female athymic mice (BALB/c, nu/nu), BALB/c mice, Wistar rats and Fisher 344 rats were obtained from Simonsen Laboratories (Gilroy, Calif.). Female A/I mice were obtained from Jackson Laboratory (Bar Harbor, Me.). DA rats were obtained from B&K Universal, Inc. (Fremont, Calif.). Athymic R/Nu rats, DBA/2N mice, and BALB/c mice were obtained from Harlan Sprague Dawley (Indianapolis, Ind.). […]
Subcutaneous Xenograft Model. […] Tumor growth was measured over 3 to 6 weeks using venier calipers tumor volumes were calculated as a product of length x width x height unless otherwise indicated. P values were calculated using the Students' t-test. su101 in 50-100 uL excipient (dimethylsulfoxide, PBTE, PBTE6C:D5W, or PBTE:D5W) was delivered by IP injection at concentrations indicated in the Figure legends.

A375 = assay: Tumor xenograft growth inhibition, A375 (melanoma); type: in vivo, human; details: for % Inhibition (day): day 31
Protocol: as §1, §2, §3, §4

T1 sequence (P35918 20-1345): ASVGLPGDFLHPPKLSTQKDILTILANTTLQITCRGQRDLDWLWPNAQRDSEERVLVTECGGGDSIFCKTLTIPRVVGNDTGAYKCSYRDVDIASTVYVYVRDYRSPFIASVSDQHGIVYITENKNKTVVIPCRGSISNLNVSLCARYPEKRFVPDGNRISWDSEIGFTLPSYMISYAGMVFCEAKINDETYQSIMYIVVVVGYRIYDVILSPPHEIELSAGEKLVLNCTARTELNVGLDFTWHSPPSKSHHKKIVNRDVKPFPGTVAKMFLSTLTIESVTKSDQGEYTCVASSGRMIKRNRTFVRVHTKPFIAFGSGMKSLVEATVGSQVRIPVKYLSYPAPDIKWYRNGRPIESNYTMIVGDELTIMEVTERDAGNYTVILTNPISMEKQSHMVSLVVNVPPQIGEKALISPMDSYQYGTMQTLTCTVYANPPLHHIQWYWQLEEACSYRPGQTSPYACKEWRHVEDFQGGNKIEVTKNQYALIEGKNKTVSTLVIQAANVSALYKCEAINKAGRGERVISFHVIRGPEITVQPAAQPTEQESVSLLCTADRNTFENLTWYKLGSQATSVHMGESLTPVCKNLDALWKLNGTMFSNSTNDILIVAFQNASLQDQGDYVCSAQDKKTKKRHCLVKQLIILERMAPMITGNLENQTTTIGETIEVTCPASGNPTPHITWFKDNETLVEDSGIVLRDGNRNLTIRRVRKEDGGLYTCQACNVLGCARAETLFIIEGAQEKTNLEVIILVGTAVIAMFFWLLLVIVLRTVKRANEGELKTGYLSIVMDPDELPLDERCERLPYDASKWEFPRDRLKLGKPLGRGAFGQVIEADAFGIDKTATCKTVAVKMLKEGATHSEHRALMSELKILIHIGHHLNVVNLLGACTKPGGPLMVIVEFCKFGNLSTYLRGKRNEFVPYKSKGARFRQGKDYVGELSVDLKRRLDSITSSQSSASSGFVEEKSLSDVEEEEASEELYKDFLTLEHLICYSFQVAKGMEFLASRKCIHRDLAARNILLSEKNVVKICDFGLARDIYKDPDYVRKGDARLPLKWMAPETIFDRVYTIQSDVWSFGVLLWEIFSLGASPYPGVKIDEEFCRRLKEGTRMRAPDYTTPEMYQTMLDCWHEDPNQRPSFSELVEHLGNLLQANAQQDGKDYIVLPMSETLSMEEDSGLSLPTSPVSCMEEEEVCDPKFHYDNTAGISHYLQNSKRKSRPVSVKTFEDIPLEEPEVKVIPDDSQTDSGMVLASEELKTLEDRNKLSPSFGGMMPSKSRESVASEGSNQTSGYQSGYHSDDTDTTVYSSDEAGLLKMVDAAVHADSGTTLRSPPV

| SMILES | IC50 (FLK-1 receptor) [µM] | inhibition of the "reddening" response and subsequent swelling [1] | % Inhibition (day) (PC-3; SCID (day 15), 12 mg/kg/day, day 36, P < 0.001) [%] | inhibition of the growth of human prostate (PC-3) (PC-3; in words) | % Inhibition (day) (PC-3; nu/nu, 20 mg/kg/day, day 45, P < 0.01) [%] | inhibition, CALU-6 (Calu-6; 20 mg/kg/day) [%] | inhibition of the growth of human lung (Calu-6) (Calu-6; in words) | % Inhibition (day) (Calu-6; nu/nu, 20 mg/kg/day, day 28, P < 0.0001) [%] | inhibition of the growth of human ovarian (PA-1) (PA-1; in words) | % Inhibition (day) (PA-1; nu/nu, 20 mg/kg/day, day 36, P < 0.04) [%] | % Inhibition (day) (A375; SCID (day 9), 15 mg/kg/day, P < 0.002) [%] | inhibition of the growth of human melanoma (A375) (A375; in words) | % Inhibition (day) (A375; nu/nu, 20 mg/kg/day, P < 0.03) [%] |
| --- | --- | --- | --- | --- | --- | --- | --- | --- | --- | --- | --- | --- | --- |
| CC(C)c1cc(/C=C(\C#N)C(=O)NCCCc2ccccc2)cc(C(C)C)c1O [Compound 5] | 0.7 | inhibited the "reddening" response and subsequent swelling |  |  |  |  |  |  |  |  |  |  |  |
| COc1cc2ncnc(Nc3ccc(I)cc3)c2cc1OC [Compound 15, 4-(4-iodophenylamino)-6,7-dimethoxy quinazoline] |  | inhibited the "reddening" response and subsequent swelling |  |  |  |  |  |  |  |  |  |  |  |
| Cc1oncc1C(=O)Nc1ccc(C(F)(F)F)cc1 [Compound 40, leflunomide] | 54 |  | 47 | effectively inhibited the growth | 71 | 63.9 | effectively inhibited the growth | 64 | effectively inhibited the growth | 53 | 53 | effectively inhibited the growth | 53 |
